The values that follow come from patent publication US20260216383A1, “RADIOLABELED MEDICINE” (National University Corporation Chiba University, priority 2022, published 2026).

In the data set the test system is BBMVs (kidney brush border membrane vesicles). Put plainly: Incubation test with BBMVs (kidney brush border membrane vesicles). In kind it is in vitro ADME, male Wistar rat. As to conditions: 37° C., two hours. Here is the method: Kidney brush border membrane vesicles (BBMVs) were prepared from the kidney of a male Wistar rat (200 to 250 g) in accordance with the method of Hori et al. [Biochemical Pharmacology 45: 1763-1768, 1993]. All the operations were carried out on ice. From four to five times the mass of 300 mM mannitol and a 12 mM tris hydrochloride buffer solution (pH 7.1) containing 5 mM EGTA were added to the cortex, and the mixture was homogenized with a Polytron Homogenizer PT-3100 (manufactured by Kinematica GmgH) for two minutes, and diluted with the same buffer solution, so as to obtain a 10% homogenate. […] The BBMVs thus prepared were evaluated for the incorporation of the lysosome enzyme by measuring the activity of β-galactosidase as a lysosome marker enzyme using p-nitrophenyl-β-D-galacto-pyranoside [Plant Physiology 55: 94-98, 1975]. Further, the activities of γ-glutamyl transferase and aminopeptidase were measured by using L-γ-glutamyl-p-nitroanilide and L-leucine-p-nitroanilide in accordance with the methods of Glossmann et al. [FEBS Letters 19: 340-344, 1972], Kramers et al. [European Journal of Biochemistry 99: 345-351, 1979].
The incubation test of BBMVs and a ^67Ga-labeled low-molecular model substrate was carried out in the following manner. […] The supernatant obtained was analyzed by HPLC at a flow rate of 1 mL/min. using an Imtakt Unison US-C18 150 mm×4.6 mm column. […]

In the case of “^67Ga-NOTA-Phe-Gly-Lys(Bzo) [^67Ga-labeled NOTA-Phe-Gly-Lys(Bzo)]”, the “amount of radioactive metabolite released by BBMVs, compared with ^67Ga-labeled NOTA-Met-Val-Lys(Bzo)” value is given as “lower than the amount of ^67Ga-labeled-NOTA-Met released from ^67Ga-labeled NOTA-Met-Val-Lys(Bzo)”. For the same substance, the “radioactive metabolite peak observed after incubation with BBMVs” value (HPLC of supernatant) is listed as “A peak of ^67Ga-labeled-NOTA-Phe-Gly was observed, not a peak of ^67Ga-labeled-NOTA-Phe”.
